Measurements from publication PMC3951875 (Bioorganic & medicinal chemistry letters, 2014).

Columns and labels:
αIIbβ3 receptor [1] = biological target: T1, αIIbβ3 receptor (Homo sapiens, UniProt P05106+P08514); assay: Platelet aggregation; assay type: cell-based
[2] = Microsomal stability, mouse; assay type: in vitro ADME; conditions: mouse microsomes
Caco2 = assay: PAMPA and Caco2 permeability analyses; assay type: in vitro ADME; conditions: data not shown
[3] = Biological stability in mouse plasma; assay type: in vitro ADME
Exposure = assay type: in vivo; conditions: for CO: IV, dose 0.03 mg, av. weight 27 g; for AUC / Cmax / Tmax / half-life: in vivo, 0.03 mg
hERG channel = hERG channel (Homo sapiens, UniProt Q12809); assay: hERG channel inhibition; assay type: biochemical; conditions: @ 25 μM; < 5% at all tested concentrations (0.008-25.0 μM)
Sequence of hERG channel (Q12809 whole entry): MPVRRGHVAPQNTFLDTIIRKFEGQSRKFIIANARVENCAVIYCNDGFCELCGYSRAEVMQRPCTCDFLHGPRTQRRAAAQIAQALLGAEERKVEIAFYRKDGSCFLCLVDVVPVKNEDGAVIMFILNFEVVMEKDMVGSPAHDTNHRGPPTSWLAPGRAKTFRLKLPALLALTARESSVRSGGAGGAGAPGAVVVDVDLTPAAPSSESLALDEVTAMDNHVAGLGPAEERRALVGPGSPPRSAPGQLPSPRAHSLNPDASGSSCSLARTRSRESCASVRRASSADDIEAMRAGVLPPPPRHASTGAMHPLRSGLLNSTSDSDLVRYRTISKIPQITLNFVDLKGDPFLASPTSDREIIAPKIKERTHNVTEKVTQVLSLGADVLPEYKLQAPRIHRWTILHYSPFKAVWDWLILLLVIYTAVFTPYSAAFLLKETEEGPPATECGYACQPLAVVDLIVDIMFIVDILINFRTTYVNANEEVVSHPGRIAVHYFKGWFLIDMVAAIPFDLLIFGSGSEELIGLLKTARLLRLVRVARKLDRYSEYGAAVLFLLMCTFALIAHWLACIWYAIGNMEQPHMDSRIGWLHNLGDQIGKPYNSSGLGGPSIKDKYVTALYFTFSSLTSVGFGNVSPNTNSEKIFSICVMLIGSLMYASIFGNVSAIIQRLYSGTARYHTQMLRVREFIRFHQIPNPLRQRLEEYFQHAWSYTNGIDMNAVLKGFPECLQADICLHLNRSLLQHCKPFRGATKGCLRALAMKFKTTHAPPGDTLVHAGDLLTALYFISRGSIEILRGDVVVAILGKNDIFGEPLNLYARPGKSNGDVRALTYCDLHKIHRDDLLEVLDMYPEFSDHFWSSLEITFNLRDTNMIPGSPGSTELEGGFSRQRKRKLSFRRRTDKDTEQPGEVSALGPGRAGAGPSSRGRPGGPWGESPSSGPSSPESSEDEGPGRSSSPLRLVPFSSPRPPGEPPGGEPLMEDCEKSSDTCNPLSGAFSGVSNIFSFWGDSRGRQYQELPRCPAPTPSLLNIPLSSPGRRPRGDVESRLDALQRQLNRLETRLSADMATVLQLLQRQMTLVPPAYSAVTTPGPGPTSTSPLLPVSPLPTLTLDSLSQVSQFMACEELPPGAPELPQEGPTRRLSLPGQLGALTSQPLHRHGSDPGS

[4] = Microsomal stability, human; assay type: in vitro ADME; conditions: human microsomes
[5] = Microsomal stability, rat; assay type: in vitro ADME; conditions: rat microsomes
αIIbβ3 receptor [6] = biological target: T1, αIIbβ3 receptor; assay: Priming of the receptor for fibrinogen binding; conditions: manuscript in preparation
αIIbβ3 receptor [7] = biological target: T1, αIIbβ3 receptor; assay: β3 conformation by binding of a conformation-specific monoclonal antibody
αVβ3 receptor = αVβ3 receptor (Homo sapiens, UniProt P05106+P06756); assay: Activity versus the αVβ3 receptor; conditions: manuscript in preparation
Sequence of αVβ3 receptor (P06756 31-889 limits assumed): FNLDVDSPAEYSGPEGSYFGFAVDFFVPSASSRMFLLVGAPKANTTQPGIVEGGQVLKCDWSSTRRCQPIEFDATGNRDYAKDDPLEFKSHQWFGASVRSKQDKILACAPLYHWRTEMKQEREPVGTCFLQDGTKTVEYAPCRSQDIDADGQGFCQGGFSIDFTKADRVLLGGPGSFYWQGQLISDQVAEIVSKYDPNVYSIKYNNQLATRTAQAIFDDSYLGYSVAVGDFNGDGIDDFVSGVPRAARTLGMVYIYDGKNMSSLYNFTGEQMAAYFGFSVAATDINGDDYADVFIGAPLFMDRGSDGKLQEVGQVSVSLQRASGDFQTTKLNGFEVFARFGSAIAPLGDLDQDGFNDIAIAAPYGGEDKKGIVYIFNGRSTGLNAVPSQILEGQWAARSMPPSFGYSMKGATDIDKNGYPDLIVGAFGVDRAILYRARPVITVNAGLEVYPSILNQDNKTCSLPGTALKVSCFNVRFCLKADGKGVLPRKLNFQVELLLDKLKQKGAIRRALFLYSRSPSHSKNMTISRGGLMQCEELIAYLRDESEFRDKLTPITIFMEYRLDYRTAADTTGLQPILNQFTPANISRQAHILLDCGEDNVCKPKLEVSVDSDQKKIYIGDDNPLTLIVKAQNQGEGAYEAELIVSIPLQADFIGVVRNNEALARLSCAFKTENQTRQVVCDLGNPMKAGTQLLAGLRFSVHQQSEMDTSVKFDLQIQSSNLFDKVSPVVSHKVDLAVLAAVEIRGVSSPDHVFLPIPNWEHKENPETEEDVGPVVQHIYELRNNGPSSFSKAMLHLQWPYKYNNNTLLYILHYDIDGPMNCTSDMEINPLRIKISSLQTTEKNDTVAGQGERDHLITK
Sequence of αVβ3 receptor (P06756 891-1048 partner limits assumed): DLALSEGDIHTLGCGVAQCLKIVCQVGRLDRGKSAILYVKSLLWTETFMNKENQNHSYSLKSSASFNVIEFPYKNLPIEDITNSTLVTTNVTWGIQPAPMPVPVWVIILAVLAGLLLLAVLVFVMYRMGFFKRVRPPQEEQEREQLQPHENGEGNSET
Sequence of αVβ3 receptor (P05106 27-788): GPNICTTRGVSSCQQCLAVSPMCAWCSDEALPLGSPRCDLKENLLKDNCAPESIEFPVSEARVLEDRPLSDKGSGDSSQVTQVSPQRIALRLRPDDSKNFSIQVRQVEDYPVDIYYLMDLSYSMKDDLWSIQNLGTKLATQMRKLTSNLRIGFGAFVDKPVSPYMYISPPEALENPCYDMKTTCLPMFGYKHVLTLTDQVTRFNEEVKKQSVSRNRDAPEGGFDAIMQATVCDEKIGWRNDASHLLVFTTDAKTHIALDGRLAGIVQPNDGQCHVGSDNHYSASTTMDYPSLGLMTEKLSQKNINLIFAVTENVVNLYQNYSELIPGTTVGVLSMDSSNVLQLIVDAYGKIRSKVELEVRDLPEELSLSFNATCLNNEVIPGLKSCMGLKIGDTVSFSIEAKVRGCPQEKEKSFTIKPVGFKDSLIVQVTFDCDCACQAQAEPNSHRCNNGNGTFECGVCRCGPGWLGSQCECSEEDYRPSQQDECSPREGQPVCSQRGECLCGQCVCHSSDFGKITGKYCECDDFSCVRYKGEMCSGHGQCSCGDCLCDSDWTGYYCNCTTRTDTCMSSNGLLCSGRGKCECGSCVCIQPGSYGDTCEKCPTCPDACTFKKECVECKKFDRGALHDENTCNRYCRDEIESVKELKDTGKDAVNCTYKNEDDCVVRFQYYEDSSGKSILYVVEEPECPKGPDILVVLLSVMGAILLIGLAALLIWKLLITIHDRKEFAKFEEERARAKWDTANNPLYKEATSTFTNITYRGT

phospholipidosis = assay: Drug-induced phospholipidosis; assay type: cell-based; conditions: data not shown
Long-term solubilization = assay type: physicochemical
[8] = Chemical stability as a solution; assay type: physicochemical; conditions: both DMSO-based and aqueous

T1 sequence (P08514 32-887 limits assumed): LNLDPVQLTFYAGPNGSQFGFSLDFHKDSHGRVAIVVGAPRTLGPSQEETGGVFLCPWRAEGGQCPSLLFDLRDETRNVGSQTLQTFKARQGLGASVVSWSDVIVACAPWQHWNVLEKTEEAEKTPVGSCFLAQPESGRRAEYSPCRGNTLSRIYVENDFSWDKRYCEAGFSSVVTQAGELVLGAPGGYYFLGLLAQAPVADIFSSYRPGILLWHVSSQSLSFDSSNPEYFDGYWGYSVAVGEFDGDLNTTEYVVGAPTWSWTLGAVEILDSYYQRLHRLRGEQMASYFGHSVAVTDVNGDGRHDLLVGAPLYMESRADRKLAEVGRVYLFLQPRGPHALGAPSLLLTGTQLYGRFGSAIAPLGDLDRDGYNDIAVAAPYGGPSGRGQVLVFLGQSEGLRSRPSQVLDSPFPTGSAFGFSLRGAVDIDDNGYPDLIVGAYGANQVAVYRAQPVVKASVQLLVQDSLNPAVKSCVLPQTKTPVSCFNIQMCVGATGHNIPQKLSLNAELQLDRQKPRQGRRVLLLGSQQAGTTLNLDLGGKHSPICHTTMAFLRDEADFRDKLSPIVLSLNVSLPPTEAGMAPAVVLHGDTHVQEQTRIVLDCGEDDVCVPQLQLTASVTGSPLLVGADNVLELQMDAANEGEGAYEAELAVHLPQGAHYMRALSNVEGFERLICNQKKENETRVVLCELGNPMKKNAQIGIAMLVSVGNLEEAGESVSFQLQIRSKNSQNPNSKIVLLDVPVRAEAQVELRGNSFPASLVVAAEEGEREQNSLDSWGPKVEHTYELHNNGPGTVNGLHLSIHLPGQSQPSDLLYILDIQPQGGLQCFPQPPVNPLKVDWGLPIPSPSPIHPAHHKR
T1 sequence (P08514 891-1039 partner limits assumed): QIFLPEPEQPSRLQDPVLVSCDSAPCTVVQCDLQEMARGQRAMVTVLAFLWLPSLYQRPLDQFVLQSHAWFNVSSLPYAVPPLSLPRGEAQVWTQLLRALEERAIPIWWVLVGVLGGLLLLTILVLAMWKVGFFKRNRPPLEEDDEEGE
T1 sequence (P05106 27-788): as the sequence (P05106 27-788) above

SMILES	PAMPA and Caco2 permeability analyses (Caco2)	Biological Stability ([3]; 15 min.)	Biological Stability ([3]; 60 min.)	Biological Stability ([3]; 120 min.)	CO (Exposure) [µg/mL]	AUC (Exposure; ip) [ng·h/mL]	Cmax (Exposure; ip) [ng/mL]	Tmax (Exposure; ip) [min]	AUC (Exposure; iv) [ng·h/mL]	half-life (Exposure; iv) [min]	hERG Inhibition (hERG channel) [% @ 25 μM]	further results
CCc1nn2c(=O)cc(N3CCNCC3)nc2s1 [compound 1]	–	–	–	–	–	–	–	–	–	–	–	IC50 (αIIbβ3 receptor [1]): 4 to 10 µM
NCC(=O)Nc1cccc(-c2nn3c(=O)cc(N4CCNCC4)nc3s2)c1 [compound 2]	unlikely that either agent possesses high oral bioavailability	97.5 (15 min.)	93.3 (60 min.)	84.5 (120 min.)	1.354	45	222	4.8	123	4.2	< 5	t1/2 [2]: > det. limit (mouse); t1/2 [4]: > det. limit (human); t1/2 [5]: > det. limit (rat)
NCC(=O)Nc1cncc(-c2nn3c(=O)cc(N4CCNCC4)nc3s2)c1 [compound 13]	unlikely that either agent possesses high oral bioavailability	100 (15 min.)	99.5 (60 min.)	91.7 (120 min.)	1.145	87	405	4.8	137	4.2	< 5	priming of the receptor for fibrinogen binding (αIIbβ3 receptor [6]): neither primes the receptor for fibrinogen binding; change of β3 conformation (αIIbβ3 receptor [7]): nor changes the β3 conformation; activity versus the αVβ3 receptor (αVβ3 receptor): does not possess any activity; induction of phospholipidosis (phospholipidosis): No appreciable induction of phospholipidosis; solubility (Long-term solubilization): ≥ 60 mg/mL
NCC(=O)Nc1cc(-c2nn3c(=O)cc(N4CCNCC4)nc3s2)ccn1 [compound 14]	–	–	–	–	–	–	–	–	–	–	–	chemical stability as a solution [8]: poor chemical stability
